Assay results as given in publication PMC2680961, “Homologous desensitization of signalling by the alpha (α) isoform of the human thromboxane A2 receptor: A specific role for nitric oxide signalling” (Biochimica et Biophysica Acta, 2007).
Numbering of substitutions follows the chain as printed.

Legend:
TPα^S340A = biological target: T1, TPα^S340A (Homo sapiens, UniProt P21731, S340A); assay: Intracellular calcium mobilization, HEK.TPα^S340A cells; type: cell-based
T1 construct: expressed in transfected cells
T1 sequence (P21731 1-343 S340A): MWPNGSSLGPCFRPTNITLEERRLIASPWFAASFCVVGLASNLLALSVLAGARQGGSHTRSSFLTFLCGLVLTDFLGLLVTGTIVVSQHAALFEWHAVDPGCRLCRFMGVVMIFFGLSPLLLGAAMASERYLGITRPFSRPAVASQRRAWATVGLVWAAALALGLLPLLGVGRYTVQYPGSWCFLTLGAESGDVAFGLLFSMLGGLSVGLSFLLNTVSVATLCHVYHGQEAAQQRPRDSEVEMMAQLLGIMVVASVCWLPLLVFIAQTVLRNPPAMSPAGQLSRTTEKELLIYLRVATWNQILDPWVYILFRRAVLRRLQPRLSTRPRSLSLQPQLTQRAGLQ
Procedure: (§1) Measurement of intracellular calcium mobilization ([Ca^2+]i) in FURA2/AM preloaded HEK 293 cell lines (2 × 10^6 cells/dish), each transiently co-transfected with pADVA (10 μg), and pCMV:Gαq (25 μg), was carried out as previously described. To investigate the effect of GRK2/βARK1 on TP-mediated [Ca^2+]i mobilization, HEK.TPα or HEK.TPβ cells (2 × 10^6 cells/dish) were co-transfected with pADVA (10 μg), pCMV:Gαq (25 μg) along with pRK5:βARK1^495–689 (25 μg), encoding a dominant negative form of GRK2/βARK1[39]. […] For each measurement of [Ca^2+]i mobilization, aliquots of cells were diluted to 0.825 × 10^6 cells/ml in HBSSHB, 1 mM CaCl2 and FURA2 fluorescence was recorded (2 ml aliquots of cells) at 37^ °C with gentle stirring with a Perkin Elmer-Cetus LS50-B spectrofluorometer at excitation wavelengths of 340 nm and 380 nm and emission wavelength of 510 nm, respectively.
Cells were stimulated with the TP agonist U46619 (1 μM) and changes in [Ca^2+]i mobilization were monitored as a function of time. […]
The vehicle had no effect on U46619-mediated [Ca^2+]i mobilization. Calibration of the signal was performed in each sample by adding 0.2% Triton X-100 to obtain the maximal fluorescence ratio (Rmax) and then 1 mM EGTA to obtain the minimal fluorescence ratio (Rmin). […]

TPα^S331,T337A = biological target: T2, TPα^S331,T337A (Homo sapiens, UniProt P21731, S331A/T337A); assay: Intracellular calcium mobilization, HEK.TPα^S331,T337A cells; type: cell-based; conditions: for Δ[Ca2+]i, U46619-induced: HEK.TPα^S331,T337A
T2 construct: expressed in transfected cells
T2 sequence (P21731 1-343 S331A/T337A): T1 sequence (P21731 1-343 S340A) with S331A, T337A, A340S
Procedure: as §1, with “GRK2/βARK1[39]. Approximately 48 h post-transfection, cells were harvested by scraping, washed twice in ice-cold PBS and resuspended in HBSSHB (modified Ca^2+/Mg^2+-free Hank's buffered salt solution, containing […], pH 7.67, 0.1% bovine serum albumin (BSA)) buffer at 10^7 cells/ml and incubated in the dark with 5 μM FURA2/AM for 45 min at 37 °C.” for “GRK2/βARK1[39].”
Cells were stimulated with the TP agonist U46619 (1 μM) and changes in [Ca^2+]i mobilization were monitored as a function of time. To assess agonist-mediated homologous desensitization, cells (0.825 × 10^6 cells/ml; 2 ml per assay) were stimulated with 1 μM U46619 (Primary stimulation) or, as a control, with the vehicle for 4 min; thereafter, cells were collected by centrifugation (900×g, 5 min); were washed twice in 2 ml HBSSHB, 1 mM CaCl2; and finally resuspended in 2 ml HBSSHB,1 mM CaCl2 and were left to recover over various time intervals (ranging from 0 to 60 min); thereafter, cells re-stimulated with 1 μM U46619 (Secondary stimulation) and changes in [Ca^2+]i mobilization were monitored as a function of time. […]

[1] = secondary 1 μM U46619 at 15 min

SMILES: CCCCC[C@H](O)/C=C/[C@@H]1[C@@H](C/C=C\CCCC(=O)O)[C@H]2CO[C@@H]1C2 [U46619]
- Δ[Ca2+]i, U46619-induced (TPα^S340A; primary 1 μM U46619 4 min): 180 ± 6.1 nM
- Δ[Ca2+]i, U46619-induced (TPα^S340A; [1]): 0 nM
- Δ[Ca2+]i, U46619-induced (TPα^S331,T337A; primary 1 μM U46619 4 min): 181 ± 6.5 nM
- Δ[Ca2+]i, U46619-induced (TPα^S331,T337A; [1]): 60 ± 7.1 nM
- secondary U46619 [Ca2+]i response relative to primary response (TPα^S331,T337A; TPα^S331,T337A): 33%
